Non-standard residues stand in square brackets, D forms with d. No end group written: not given here. pGlu = O=C1CC[C@@H](C(=O)O)N1
Experiments:
[1] = Sweetness grading of sweetener solutions on a scale from 0 to 15 over 7 days; details: for Sweetness score Day 1 / Sweetness score Day 4 / Sweetness score Day 5 / Sweetness score Day 6 / Sweetness score Day 7: scale of 0-15
Method: Formulations comprising brazzein and rebaudiosides were developed and their relative sweetness was assessed. Sweetness was graded on a scale from 0 (no sweetness) to 15 (maximal sweetness) and assessed for the different formulations over a period of 7 days.

[2] = cited from earlier work
[3] = Sensory grading (0 to 9) of flavor and sweetness of chocolate formulations with versus without brazzein; details: chocolate with Reb D, Reb E, Reb I, Reb M, with vs without brazzein; FIG. 2B
Method: Formulations comprising brazzein and chocolate were developed, and their relative flavor and sweetness were assessed. Sweetness and flavor were graded across different factors on a scale from 0 (minimum) to 9 (maximal) and assessed for the different formulations. Different factors tested include sweet taste, bitter taste, chocolate flavor, dairy flavor, sweet aromatics, and green/vegetative. The formulations tested comprise brazzein, Reb D, Reb E, Reb I, Reb M and chocolate compared to a control (chocolate comprising Reb D, Reb E, Reb I, and Reb M).
The sweetness is enhanced by having the early onset and slow fade more like sugar than chocolate that is only sweetened with Reb D, Reb E, Reb I, and Reb M. Therefore, including brazzein in food compositions, such as chocolate, enhance the flavor and sweetness of the composition.

[4] = cited from earlier work; remark: listed apart in the source

Row | Molecule | Sweetness score Day 1 [1] | Sweetness score Day 4 [1] | Sweetness score Day 5 [1] | Sweetness score Day 6 [1] | Sweetness score Day 7 [1] | further results
1 | C=C1C[C@@]23CC[C@H]4[C@@](C)(CCC[C@@]4(C)C(=O)O[C@@H]4O[C@H](CO)[C@@H](O)[C@H](O[C@@H]5O[C@H](CO)[C@@H](O)[C@H](O)[C@H]5O)[C@H]4O[C@@H]4O[C@H](CO)[C@@H](O)[C@H](O)[C@H]4O)[C@@H]2CC[C@]1(O[C@@H]1O[C@H](CO)[C@@H](O)[C@H](O[C@@H]2O[C@H](CO)[C@@H](O)[C@H](O)[C@H]2O)[C@H]1O[C@@H]1O[C@H](CO)[C@@H](O)[C@H](O)[C@H]1O)C3 [Reb M at SE of 5% sucrose, Rebaudioside M] | 5 | 5 | 5 | 5 | 5 | –
2 | OC[C@H]1O[C@@](CO)(O[C@H]2O[C@H](CO)[C@@H](O)[C@H](O)[C@H]2O)[C@@H](O)[C@@H]1O [Sucrose (5%), Sucrose] | 5 | 5 | 5 | 5 | 5 | –
3 | PyrE-bra: major form brazzein, pyroglutamic acid at N-terminus, 54 amino acid residues ([pGlu]DKCKKVYENYPVSKCQLANQCNYDCKLDKHARSGECFYDEKRNLQCICDYCEY; cysteine pairing not given here; UniProt P56552 1-54, looked up) | – | – | – | – | – | Times sweeter than 10% sucrose solution ([2]; vs 10% sucrose solution): 500 times
4 | brazzein: natural peptide sweetener first isolated from the fruit of Pentadiplandra brazzeana Baillon (SEQ ID NO: 12) (QDKCKKVYENYPVSKCQLANQCNYDCKLDKHARSGECFYDEKRNLQCICDYCEY; Pentadiplandra brazzeana Baillon) | – | – | – | – | – | Astringency [3]: decreased; Bitter taste at 120 seconds [3]: decreased; Sweet taste after incubation at 80° C. for 4.5 hours ([4]; 80° C., 4.5 hours, pH range of 2.5-8.0): sweet taste remains; Sweet taste after incubation at 98° C. for 2 hours ([4]; 98° C., 2 hours): sweet taste remains; Times sweeter than sucrose on a weight basis ([2]; weight basis): 500-2000 times; Effect on perceived sweetness profile of the solution ([1]; 25 ppm brazzein added to a 5% sucrose solution): slightly enhanced; Sweetness over the 7-day period ([1]; 25 ppm brazzein in 5% sucrose solution): remained stable; Effect on sweetness of a Reb M solution ([1]; brazzein added to Reb M solution with SE of 5% sucrose, compared to sucrose plus brazzein): synergistically enhanced

Reference: patent US20230345984A1, “SWEETENERS” (Sweegen, Inc, priority 2022, published 2023)
